According to ChEMBL document CHEMBL1143231, “Specific fluorescent detection of fibrillar alpha-synuclein using mono- and trimethine cyanine dyes” (Bioorg Med Chem, 2008):

Legend:
Homo sapiens [1] = species: Homo sapiens; assay: Binding affinity to human beta amyloid protein 1-28 from Alzheimers disease patient
Homo sapiens [2] = species: Homo sapiens; assay: Binding affinity to human beta amyloid protein 1-40 from Alzheimers disease patient

With `Cc1ccc2c(c1)sc(-c1ccc(N(C)C)cc1)[n+]2C` the Kb (Homo sapiens [1]) was 1.85 10^6/M and the Kb (Homo sapiens [2]) was 0.5 10^6/M.
